Among the data in US11498903B2 (BRISTOL-MYERS SQUIBB COMPANY, priority 2017, dated 2022) are EC50 values, retold here.

This assay concerns the target T1, human APJ receptor (Homo sapiens, UniProt P35414).
T1 construct: expressed in transfected cells
T1 sequence (P35414 1-380): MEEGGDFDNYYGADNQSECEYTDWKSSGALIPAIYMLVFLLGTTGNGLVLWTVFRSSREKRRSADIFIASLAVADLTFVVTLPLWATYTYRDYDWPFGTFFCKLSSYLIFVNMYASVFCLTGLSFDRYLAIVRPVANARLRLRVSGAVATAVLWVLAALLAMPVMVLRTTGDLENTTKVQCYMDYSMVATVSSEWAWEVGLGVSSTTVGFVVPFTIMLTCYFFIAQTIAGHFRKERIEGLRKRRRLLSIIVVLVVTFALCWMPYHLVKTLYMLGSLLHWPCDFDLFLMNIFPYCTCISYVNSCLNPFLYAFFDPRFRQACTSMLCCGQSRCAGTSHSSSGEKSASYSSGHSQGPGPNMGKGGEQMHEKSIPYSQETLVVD
Briefly: Intracellular cAMP accumulation assay (APJ hcAMP, HTRF). To be noted: HEK293 cells stably expressing human APJ receptor. In kind it is cell-based. The essentials: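 Inhibition of 2 μM forskolin-driven cAMP ([…] present) measured by HTRF in 5,000 HEK293 cells/well stably expressing human APJ, 30 min, room temperature. EC50 came from a variable-slope sigmoidal fit; Ymax was relative to (Pyr1)apelin-13 set at 100%.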

[1] abbreviates: Table 1, inhibition of forskolin-mediated cAMP production, read-out: APJ hcAMP EC50.
[2] abbreviates: Table 2, read-out: APJ cAMP Human EC50.

SMILES strings stand for the structures. pEC50: −log10 of the molar value. Like-named read-outs stand apart in the source and are kept apart here.

With `CCC[C@@H](NC(=O)c1ccc(-c2cc(OC)ccc2-c2nc3ccccc3[nH]2)c(C(=O)O)c1)c1ccccc1` [Example 53, 2′-(1H-1,3-benzodiazol-2-yl)-5′-methoxy-4-{[(1R)-1-phenylbutyl]carbamoyl}-[1,1′-biphenyl]-2-carboxylic acid], the pEC50 runs as follows: under setting [1], more than 8.00; under setting [2], more than 8.00.

On to `CCC[C@@H](NC(=O)c1ccc(-c2ccc(Cl)cc2-c2nc3ccccc3[nH]2)c(C(=O)O)c1)c1ccccc1` [Example 54, 2′-(1H-1,3-benzodiazol-2-yl)-4′-chloro-4-{[(1R)-1-phenylbutyl]carbamoyl}-[1,1′-biphenyl]-2-carboxylic acid], for which the pEC50 reads like this: under setting [1], 7.00 to 8.00; under setting [2], 7.00 to 8.00.

In the case of `CCC[C@@H](NC(=O)c1ccc(-c2cccc(F)c2-c2nc3ccccc3[nH]2)c(C(=O)O)c1)c1ccccc1` [Example 55, 2′-(1H-1,3-benzodiazol-2-yl)-3′-fluoro-4-{[(1R)-1-phenylbutyl]carbamoyl}-[1,1′-biphenyl]-2-carboxylic acid], the pEC50 by setting is: under setting [1], 6.30 to 7.00; under setting [2], 6.30 to 7.00.

Consider `CCC[C@@H](NC(=O)c1ccc(-c2cc(C(F)(F)F)ccc2-c2nc3cc(OC)ccc3[nH]2)c(C(=O)O)c1)c1ccccc1` [Example 56, 2′-(5-methoxy-1H-1,3-benzodiazol-2-yl)-4-{[(1R)-1-phenylbutyl]carbamoyl}-5′-(trifluoromethyl)-[1,1′-biphenyl]-2-carboxylic acid], for which the pEC50 reads like this: under setting [1], more than 8.00; under setting [2], more than 8.00.

With `CCC[C@@H](NC(=O)c1ccc(-c2ccc(Cl)cc2-c2nc3cc(OC)ccc3[nH]2)c(C(=O)O)c1)c1ccccc1` [Example 57, 4′-chloro-2′-(5-methoxy-1H-1,3-benzodiazol-2-yl)-4-{[(1R)-1-phenylbutyl]carbamoyl}-[1,1′-biphenyl]-2-carboxylic acid], the pEC50 under setting [1] is more than 8.00 and the pEC50 under setting [2] is more than 8.00.

Take `CCC[C@@H](NC(=O)c1ccc(-c2ccccc2-c2nc3cc(OC)ccc3[nH]2)c(C(=O)O)c1)c1ccccc1` [Example 58, 2′-(5-methoxy-1H-1,3-benzodiazol-2-yl)-4-{[(1R)-1-phenylbutyl]carbamoyl}-[1,1′-biphenyl]-2-carboxylic acid]: the negative logarithm of the EC50 (pEC50) is, setting by setting: under setting [1], more than 8.00; under setting [2], more than 8.00.

In the case of `CCC[C@@H](NC(=O)c1ccc(-c2cc(OC)ccc2-c2nc3cc(OC)ccc3[nH]2)c(C(=O)O)c1)c1ccccc1` [Example 59, 5′-methoxy-2′-(5-methoxy-1H-1,3-benzodiazol-2-yl)-4-{[(1R)-1-phenylbutyl]carbamoyl}-[1,1′-biphenyl]-2-carboxylic acid], the pEC50 under setting [1] is more than 8.00 and the pEC50 under setting [2] is more than 8.00.

Regarding `CCC[C@@H](NC(=O)c1ccc(-c2cc(C(F)(F)F)ccc2-c2nc3cc(C(C)(C)C)ccc3[nH]2)c(C(=O)O)c1)c1ccccc1` [Example 60, 2′-(5-tert-butyl-1H-1,3-benzodiazol-2-yl)-4-{[(1R)-1-phenylbutyl]carbamoyl}-5′-(trifluoromethyl)-[1,1′-biphenyl]-2-carboxylic acid], the pEC50 reads like this: under setting [1], more than 8.00; under setting [2], more than 8.00.

For the molecule `CCC[C@@H](NC(=O)c1ccc(-c2cc(OC)ccc2-c2nc3cc(C(C)(C)C)ccc3[nH]2)c(C(=O)O)c1)c1ccccc1` [Example 61, 2′-(5-tert-butyl-1H-1,3-benzodiazol-2-yl)-5′-methoxy-4-{[(1R)-1-phenylbutyl]carbamoyl}-[1,1′-biphenyl]-2-carboxylic acid], the pEC50 is, setting by setting: under setting [1], more than 8.00; under setting [2], more than 8.00.

For the molecule `CCC[C@@H](NC(=O)c1ccc(-c2ccccc2-c2nc3cc(C(C)(C)C)ccc3[nH]2)c(C(=O)O)c1)c1ccccc1` [Example 62, 2′-(5-tert-butyl-1H-1,3-benzodiazol-2-yl)-4-{[(1R)-1-phenylbutyl]carbamoyl}-[1,1′-biphenyl]-2-carboxylic acid], the pEC50 under setting [1] was 7.00 to 8.00 and the pEC50 under setting [2] was more than 8.00.

Turning to `CCC[C@@H](NC(=O)c1ccc(-c2ccc(Cl)cc2-c2nc3cc(C(C)(C)C)ccc3[nH]2)c(C(=O)O)c1)c1ccccc1` [Example 63, 2′-(5-tert-butyl-1H-1,3-benzodiazol-2-yl)-4′-chloro-4-{[(1R)-1-phenylbutyl]carbamoyl}-[1,1′-biphenyl]-2-carboxylic acid], the pEC50 is, setting by setting: under setting [1], 7.00 to 8.00; under setting [2], 7.00 to 8.00.

With `COC[C@@H](NC(=O)c1ccc(-c2ccccc2-c2nc3cc(OC)ccc3[nH]2)c(C(=O)O)c1)c1ccccc1` [Example 64, 4-{[(1S)-2-methoxy-1-phenylethyl]carbamoyl}-2′-(5-methoxy-1H-1,3-benzodiazol-2-yl)-[1,1′-biphenyl]-2-carboxylic acid], the pEC50 by setting is: under setting [1], more than 8.00; under setting [2], more than 8.00.

For the molecule `COC[C@@H](NC(=O)c1ccc(-c2ccccc2-c2nc3cc(C(C)(C)C)ccc3[nH]2)c(C(=O)O)c1)c1ccccc1` [Example 65, 2′-(5-tert-butyl-1H-1.3-benzodiazol-2-yl)-4-{[(1S)-2-methoxy-1-phenylethyl]carbamoyl}-[1,1′-biphenyl]-2-carboxylic acid], the pEC50 is more than 8.00 under setting [1] and more than 8.00 under setting [2].

As for `COC[C@@H](NC(=O)c1ccc(-c2ccccc2-c2nc3ccccc3[nH]2)c(C(=O)O)c1)c1ccccc1` [Example 66, 2′-(1H-1,3-benzodiazol-2-yl)-4-{[(1S)-2-methoxy-1-phenylethyl]carbamoyl}-[1,1′-biphenyl]-2-carboxylic acid], the pEC50 is, setting by setting: under setting [1], 7.00 to 8.00; under setting [2], 7.00 to 8.00.

As to `CCC[C@@H](NC(=O)c1cc(C(=O)O)c(-c2cc(Cl)ccc2-c2nc3cc(OC)ccc3[nH]2)cc1C)c1ccccc1` [Example 67, 5′-chloro-2′-(5-methoxy-1H-1,3-benzodiazol-2-yl)-5-methyl-4-{[(1R)-1-phenylbutyl]carbamoyl}-[1,1′-biphenyl]-2-carboxylic acid], the negative logarithm of the EC50 (pEC50) under setting [1] was more than 8.00 and the pEC50 under setting [2] is more than 8.00.

`CCC[C@@H](NC(=O)c1cc(C(=O)O)c(-c2cc(Cl)ccc2-c2nc3cc(C(C)(C)C)ccc3[nH]2)cc1C)c1ccccc1` [Example 68, 2,-(5-tert-butyl-1H-1,3-benzodiazol-2-yl)-5′-chloro-5-methyl-4-{[(1R)-1-phenylbutyl]carbamoyl}-[1,1′-biphenyl]-2-carboxylic acid]: the pEC50 was more than 8.00 under setting [1] and more than 8.00 under setting [2].

For the molecule `COC[C@@H](NC(=O)c1ccc(-c2cc(Cl)ccc2-c2nc3ccccc3[nH]2)c(C(=O)O)c1)c1ccccc1` [Example 69, 2′-(1H-1,3-benzodiazol-2-yl)-5′-chloro-4-{[(1S)-2-methoxy-1-phenylethyl]carbamoyl}-[1,1′-biphenyl]-2-carboxylic acid], the pEC50 under setting [1] was more than 8.00 and the pEC50 under setting [2] was more than 8.00.

For `COc1ccccc1[C@@H](C)NC(=O)c1ccc(-c2cc(Cl)ccc2-c2nc3ccccc3[nH]2)c(C(=O)O)c1` [Example 70, 2′-(1H-1,3-benzodiazol-2-yl)-5′-chloro-4-{[(1R)-1-(2-methoxyphenyl)ethyl]carbamoyl}-[1,1′-biphenyl]-2-carboxylic acid], the pEC50 reads like this: under setting [1], more than 8.00; under setting [2], more than 8.00.

`CCC[C@H](NC(=O)c1ccc(-c2cc(Cl)ccc2-c2nc3ccccc3[nH]2)c(C(=O)O)c1)c1ccccc1` [Example 71, 2′-(1H-1,3-benzodiazol-2-yl)-5′-chloro-4-{[(1S)-1-phenylbutyl]carbamoyl}-[1,1′-biphenyl]-2-carboxylic acid]: the pEC50 was 7.00 to 8.00 under setting [1] and 7.00 to 8.00 under setting [2].

In the case of `C[C@@H](NC(=O)c1ccc(-c2cc(Cl)ccc2-c2nc3ccccc3[nH]2)c(C(=O)O)c1)c1cccc(Cl)c1` [Example 72, 2′-(1H-1,3-benzodiazol-2-yl)-5′-chloro-4-{[(1R)-1-(3-chlorophenyl)ethyl]carbamoyl}-[1,1′-biphenyl]-2-carboxylic acid], the pEC50 is, setting by setting: under setting [1], 7.00 to 8.00; under setting [2], 7.00 to 8.00.

`C[C@@H](NC(=O)c1ccc(-c2cc(Cl)ccc2-c2nc3ccccc3[nH]2)c(C(=O)O)c1)c1cccc2ccccc12` [Example 73, 2′-(1H-1,3-benzodiazol-2-yl)-5′-chloro-4-{[(1R)-1-(naphthalen-1-yl)ethyl]carbamoyl}-[1,1′-biphenyl]-2-carboxylic acid]: the negative logarithm of the EC50 (pEC50) is, setting by setting: under setting [1], 7.00 to 8.00; under setting [2], 7.00 to 8.00.

Take `COc1cccc([C@@H](C)NC(=O)c2ccc(-c3cc(Cl)ccc3-c3nc4ccccc4[nH]3)c(C(=O)O)c2)c1` [Example 74, 2′-(1H-1,3-benzodiazol-2-yl)-5′-chloro-4-{[(1R)-1-(3-methoxyphenyl)ethyl]carbamoyl}-[1,1′-biphenyl]-2-carboxylic acid]: the pEC50 is 7.00 to 8.00 under setting [1] and 7.00 to 8.00 under setting [2].

Turning to `C[C@@H](NC(=O)c1ccc(-c2cc(Cl)ccc2-c2nc3ccccc3[nH]2)c(C(=O)O)c1)c1ccccc1Cl` [Example 75, 2′-(1H-1,3-benzodiazol-2-yl)-5′-chloro-4-{[(1R)-1-(2-chlorophenyl)ethyl]carbamoyl}-[1,1′-biphenyl]-2-carboxylic acid], the pEC50 by setting is: under setting [1], 7.00 to 8.00; under setting [2], 7.00 to 8.00.

Take `C[C@@H](NC(=O)c1ccc(-c2cc(Cl)ccc2-c2nc3ccccc3[nH]2)c(C(=O)O)c1)c1ccccc1` [Example 76, 2′-(1H-1,3-benzodiazol-2-yl)-5′-chloro-4-{[(1R)-1-phenylethyl]carbamoyl}-[1,1′-biphenyl]-2-carboxylic acid]: the pEC50 is 7.00 to 8.00 under setting [1] and 7.00 to 8.00 under setting [2].
